Source: ChEMBL document CHEMBL1201862, “PubChem BioAssay data set” (2004)
The source made the active and inactive calls.

Columns and labels:
[1] = M. tuberculosis growth inhibition in 7H9, dose response, 7H9 media, purified and synthesized samples, set 3 (AID 504646); format: functional
[2] = target: Steroidogenic factor 1 (Homo sapiens, UniProt Q13285); experiment: Counterscreen for inverse agonists of the liver receptor homolog-1 (LRH-1; NR5A2): Luminescence-based cell-based high throughput dose response assay to identify inverse agonists of the Steroidogenic Factor 1 Nuclear Receptor (SF1; NR5A1).; format: functional
[3] = target: Nuclear receptor subfamily 5 group A member 2 (Homo sapiens, UniProt O00482); format: functional, cell-based;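 further: HEK293T cells transfected with LRH-1 and a StAR promoter luciferase reporter; potency for inhibitors that lower LRH-1 driven reporter light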
[4] = StAR promoter reporter inhibition counter-screen, dose response, counter-screen for LRH-1 inverse agonist project, cell-based, luminescence, luciferase reporter (AID 651969); format: functional
[5] = test system: Streptococcus; experiment: Group A Streptococcus viability loss, dose response, counter-screen for streptokinase expression inhibitor project, luminescence, BacTiterGlo (AID 1915); format: functional, organism-based;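 further: potency for reduction of bacterial viability or growth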
[6] = test system: Streptococcus sp. 'group A'; experiment: growth inhibition of control SK(-) GAS strain, dose response, counter-screen for streptokinase expression inhibitor project, luminescence, kanamycin, BacTiterGlo, confirmation (AID 1900); format: functional, organism-based
[7] = human group III sPLA2 inhibitors, dose response, biochemical, QFRET, IC50 (AID 743457);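 further: green fluorescence rise as the enzyme cleaves BODIPY PC-A2 in liposomes; potency for inhibition of the enzyme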
[8] = test system: Vero; experiment: cells; format: functional; settings: Chlorocebus sabaeus
[9] = target: T1, Beta-lactamase (Pseudomonas aeruginosa, UniProt Q79MP6); experiment: […] counterscreen for selective VIM-2 inhibitors: dose response biochemical high throughput screening assay to identify inhibitors of IMP-1 metallo-beta-lactamase.
[10] = target: T1, Beta-lactamase; experiment: IMP-1 metallo-beta-lactamase inhibitors, dose response, selectivity assay for VIM-2 inhibitor project, biochemical, epi-absorbance (AID 1920)
[11] = target: Beta-lactamase (Salmonella choleraesuis (strain SC-B67), UniProt Q5J463); experiment: Epi-absorbance-based counterscreen for selective VIM-2 inhibitors: dose response biochemical high throughput screening assay to identify inhibitors of TEM-1 serine-beta-lactamase.
[12] = target: T2, Sentrin-specific protease 1 (Homo sapiens, UniProt Q9P0U3); experiment: potency of human SENP1 inhibitors, dose response, biochemical, kinetic FRET (AID 651697); format: functional; settings: read-out: IC50_Mean
[13] = target: T2, Sentrin-specific protease 1; experiment: Dose response confirmation of small molecule inhibitors of the catalytic domain of the SUMO protease, SENP1 in a FRET assay.; format: functional; settings: read-out: IC50_Mean
[14] = target: Albumin (Bos taurus, UniProt P02769); experiment: Counterscreen for inhibitors of T-cell receptor (TCR)-CD3 interaction: Fluorescence-based biochemical high throughput dose response assay to identify inhibitors of T-cell receptor (TCR)-CD3 interaction using a TAMRA-labeled BSA probe.; format: functional
[15] = test system: INS1; experiment: beta cell apoptosis inhibitors, cytokine rescue, dose response, luminescence, retest (AID 449756); format: functional, cell-based; settings: Rattus norvegicus;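 further: cell death triggered by IL-1 beta plus TNF-alpha plus IFN-gamma mixture; protective hits raise ATP signal compared with cytokine alone wells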
[16] = target: Photoreceptor-specific nuclear receptor (Homo sapiens, UniProt Q9Y5X4); format: functional, cell-based;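 further: CHO-S cells with Gal4-NCOR and VP16-NR2E3 two-hybrid luciferase reporter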
[17] = target: T3, Eukaryotic translation initiation factor 2-alpha kinase 3 (Homo sapiens, UniProt Q9NZJ5); experiment: Dose response cell-based high-throughput screening assay to measure PERK inhibition. [Related pubchem assays: 1416 ]; format: functional
T3 sequence (Q9NZJ5 whole entry): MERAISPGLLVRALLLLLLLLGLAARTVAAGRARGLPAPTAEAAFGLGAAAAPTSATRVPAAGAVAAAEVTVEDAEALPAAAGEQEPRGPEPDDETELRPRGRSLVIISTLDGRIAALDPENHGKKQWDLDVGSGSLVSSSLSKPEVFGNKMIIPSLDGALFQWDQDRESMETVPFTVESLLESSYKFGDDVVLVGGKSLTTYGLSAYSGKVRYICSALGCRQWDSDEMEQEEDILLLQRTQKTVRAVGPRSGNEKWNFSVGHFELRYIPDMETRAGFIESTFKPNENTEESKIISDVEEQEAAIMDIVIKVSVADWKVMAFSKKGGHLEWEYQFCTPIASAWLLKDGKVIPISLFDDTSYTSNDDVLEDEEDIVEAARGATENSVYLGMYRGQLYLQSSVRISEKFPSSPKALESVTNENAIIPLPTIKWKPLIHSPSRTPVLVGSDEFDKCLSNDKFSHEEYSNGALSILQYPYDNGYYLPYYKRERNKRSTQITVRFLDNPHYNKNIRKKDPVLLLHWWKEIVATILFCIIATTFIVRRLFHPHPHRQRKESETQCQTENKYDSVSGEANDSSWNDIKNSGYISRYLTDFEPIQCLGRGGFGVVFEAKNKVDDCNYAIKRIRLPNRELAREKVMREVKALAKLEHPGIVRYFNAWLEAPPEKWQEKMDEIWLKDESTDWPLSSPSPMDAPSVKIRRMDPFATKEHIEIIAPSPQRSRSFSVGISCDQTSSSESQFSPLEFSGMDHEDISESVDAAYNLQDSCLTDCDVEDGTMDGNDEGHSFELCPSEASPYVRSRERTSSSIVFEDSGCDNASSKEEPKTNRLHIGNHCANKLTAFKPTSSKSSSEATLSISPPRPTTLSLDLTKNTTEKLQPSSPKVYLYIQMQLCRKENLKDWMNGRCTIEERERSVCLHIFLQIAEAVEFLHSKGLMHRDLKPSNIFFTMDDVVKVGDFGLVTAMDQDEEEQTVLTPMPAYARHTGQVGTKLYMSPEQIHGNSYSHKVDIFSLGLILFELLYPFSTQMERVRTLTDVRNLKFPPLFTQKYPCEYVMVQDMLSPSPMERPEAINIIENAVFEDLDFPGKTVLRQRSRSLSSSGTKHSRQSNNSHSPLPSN

[18] = target: T3, Eukaryotic translation initiation factor 2-alpha kinase 3; experiment: Counterscreen assay for PERK inhibitors: Dose response cell-based high throughput screening assay to measure inhibition of PERK at 6 hours. [Related pubchem assays: 1522, 1416 ]; format: functional
[19] = target: Mitochondrial peptide methionine sulfoxide reductase (Bos taurus, UniProt P54149); experiment: Absorbance-based biochemical high throughput dose response assay for activators of Methionine sulfoxide reductase A (MsrA).; format: functional
Sequence of Mitochondrial peptide methionine sulfoxide reductase (P54149 whole entry): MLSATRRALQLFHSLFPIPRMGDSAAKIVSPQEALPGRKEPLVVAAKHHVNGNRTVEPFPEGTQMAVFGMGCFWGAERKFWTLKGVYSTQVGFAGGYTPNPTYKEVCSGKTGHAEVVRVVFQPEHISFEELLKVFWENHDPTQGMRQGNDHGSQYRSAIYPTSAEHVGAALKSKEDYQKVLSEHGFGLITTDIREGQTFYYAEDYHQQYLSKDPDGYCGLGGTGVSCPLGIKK

T2 sequence (Q9P0U3 whole entry, the tested form may be a part): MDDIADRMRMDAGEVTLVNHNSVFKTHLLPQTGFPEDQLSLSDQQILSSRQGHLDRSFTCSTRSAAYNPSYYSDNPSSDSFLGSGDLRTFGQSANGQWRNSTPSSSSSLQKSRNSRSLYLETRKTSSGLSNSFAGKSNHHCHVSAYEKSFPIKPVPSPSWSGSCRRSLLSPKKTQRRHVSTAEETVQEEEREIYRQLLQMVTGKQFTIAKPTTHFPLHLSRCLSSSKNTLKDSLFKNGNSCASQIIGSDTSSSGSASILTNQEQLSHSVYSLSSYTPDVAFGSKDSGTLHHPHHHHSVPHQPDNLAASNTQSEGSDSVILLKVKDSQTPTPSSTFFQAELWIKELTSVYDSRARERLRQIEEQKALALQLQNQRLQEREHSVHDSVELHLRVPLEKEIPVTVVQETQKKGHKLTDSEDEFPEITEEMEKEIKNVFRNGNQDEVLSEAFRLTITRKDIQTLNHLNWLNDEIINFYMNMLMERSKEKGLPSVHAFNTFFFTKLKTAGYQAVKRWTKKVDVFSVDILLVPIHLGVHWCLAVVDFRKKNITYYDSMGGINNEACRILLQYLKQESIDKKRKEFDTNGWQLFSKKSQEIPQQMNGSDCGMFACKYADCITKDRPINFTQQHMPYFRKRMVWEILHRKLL
T1 sequence (Q79MP6 whole entry): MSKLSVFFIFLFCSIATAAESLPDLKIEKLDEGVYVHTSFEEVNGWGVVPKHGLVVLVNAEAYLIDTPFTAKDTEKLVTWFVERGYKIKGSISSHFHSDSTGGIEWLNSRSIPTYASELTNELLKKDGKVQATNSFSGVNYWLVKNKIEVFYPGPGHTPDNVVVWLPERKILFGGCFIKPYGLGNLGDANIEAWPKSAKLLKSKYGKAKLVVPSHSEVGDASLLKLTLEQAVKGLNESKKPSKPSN
Sequence of Photoreceptor-specific nuclear receptor (Q9Y5X4 whole entry, the tested form may be a part): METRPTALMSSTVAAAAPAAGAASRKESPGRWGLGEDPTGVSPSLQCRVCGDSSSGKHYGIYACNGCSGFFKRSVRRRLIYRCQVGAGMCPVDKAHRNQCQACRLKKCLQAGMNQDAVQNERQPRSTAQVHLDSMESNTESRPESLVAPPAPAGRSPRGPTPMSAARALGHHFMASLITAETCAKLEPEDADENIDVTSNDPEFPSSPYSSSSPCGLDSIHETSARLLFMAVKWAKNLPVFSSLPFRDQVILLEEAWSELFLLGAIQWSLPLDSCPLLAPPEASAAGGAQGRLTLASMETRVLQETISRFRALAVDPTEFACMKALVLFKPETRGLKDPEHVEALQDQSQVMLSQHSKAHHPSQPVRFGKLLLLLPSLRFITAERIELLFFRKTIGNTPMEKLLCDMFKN
Sequence of Steroidogenic factor 1 (Q13285 whole entry): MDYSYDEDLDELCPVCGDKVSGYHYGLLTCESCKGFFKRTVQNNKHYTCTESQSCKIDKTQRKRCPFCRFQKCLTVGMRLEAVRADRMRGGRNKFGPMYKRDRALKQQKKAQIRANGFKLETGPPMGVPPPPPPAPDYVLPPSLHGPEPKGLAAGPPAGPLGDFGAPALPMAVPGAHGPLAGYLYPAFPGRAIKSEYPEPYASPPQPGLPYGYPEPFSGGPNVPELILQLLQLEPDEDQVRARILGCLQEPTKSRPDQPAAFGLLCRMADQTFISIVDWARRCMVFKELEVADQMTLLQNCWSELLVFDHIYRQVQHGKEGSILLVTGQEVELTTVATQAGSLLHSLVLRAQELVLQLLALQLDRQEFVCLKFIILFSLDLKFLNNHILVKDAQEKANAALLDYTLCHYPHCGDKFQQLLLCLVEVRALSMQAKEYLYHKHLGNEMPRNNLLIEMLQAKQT
Sequence of Albumin (P02769 whole entry): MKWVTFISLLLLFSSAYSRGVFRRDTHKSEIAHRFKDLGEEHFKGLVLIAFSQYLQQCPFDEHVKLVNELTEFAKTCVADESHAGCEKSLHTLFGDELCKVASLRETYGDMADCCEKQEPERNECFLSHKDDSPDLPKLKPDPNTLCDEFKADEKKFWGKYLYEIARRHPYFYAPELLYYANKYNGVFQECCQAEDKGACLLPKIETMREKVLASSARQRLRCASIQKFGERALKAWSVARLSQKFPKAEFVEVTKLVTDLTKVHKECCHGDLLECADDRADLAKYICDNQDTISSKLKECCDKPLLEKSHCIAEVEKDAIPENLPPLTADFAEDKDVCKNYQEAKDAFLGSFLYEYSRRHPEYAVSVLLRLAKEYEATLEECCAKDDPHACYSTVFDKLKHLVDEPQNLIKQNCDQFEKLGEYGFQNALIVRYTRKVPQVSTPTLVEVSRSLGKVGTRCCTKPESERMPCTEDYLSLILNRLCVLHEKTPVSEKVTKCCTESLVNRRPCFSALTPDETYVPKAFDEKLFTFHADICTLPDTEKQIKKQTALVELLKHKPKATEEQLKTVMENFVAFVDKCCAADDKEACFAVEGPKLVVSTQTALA
Sequence of Nuclear receptor subfamily 5 group A member 2 (O00482 whole entry): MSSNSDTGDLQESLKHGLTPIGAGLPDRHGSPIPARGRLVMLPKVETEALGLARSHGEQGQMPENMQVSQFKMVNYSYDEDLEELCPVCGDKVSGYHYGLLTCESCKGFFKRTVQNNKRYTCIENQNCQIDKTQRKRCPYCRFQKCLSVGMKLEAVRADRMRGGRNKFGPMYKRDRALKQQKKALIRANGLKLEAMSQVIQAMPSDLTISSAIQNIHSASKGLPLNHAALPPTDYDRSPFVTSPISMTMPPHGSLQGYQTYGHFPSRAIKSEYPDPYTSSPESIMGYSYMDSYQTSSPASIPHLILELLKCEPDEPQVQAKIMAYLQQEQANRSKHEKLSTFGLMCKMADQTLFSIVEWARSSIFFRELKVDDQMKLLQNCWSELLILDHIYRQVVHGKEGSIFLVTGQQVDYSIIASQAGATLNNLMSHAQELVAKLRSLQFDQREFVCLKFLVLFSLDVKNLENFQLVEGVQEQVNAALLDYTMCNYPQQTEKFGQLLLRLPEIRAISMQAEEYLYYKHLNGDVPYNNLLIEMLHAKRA
Sequence of Beta-lactamase (Salmonella choleraesuis (strain SC-B67), UniProt Q5J463) (Q5J463 whole entry): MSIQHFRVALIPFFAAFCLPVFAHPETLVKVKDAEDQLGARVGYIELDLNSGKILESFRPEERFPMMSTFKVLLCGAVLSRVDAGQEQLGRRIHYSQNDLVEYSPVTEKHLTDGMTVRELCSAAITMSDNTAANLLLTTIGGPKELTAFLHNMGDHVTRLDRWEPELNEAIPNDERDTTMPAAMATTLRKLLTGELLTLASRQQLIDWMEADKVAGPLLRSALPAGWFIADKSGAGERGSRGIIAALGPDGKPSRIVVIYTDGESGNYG

Structure (SMILES): O=C(NCC1COc2ccccc2O1)C1CCC(CNc2c(N3CCCCC3)c(=O)c2=O)CC1 (centres undefined)
- IC50 [1]: > 25 µM (active)

Structure (SMILES): COc1ccc(NC(=O)CSc2nnc3ccc(-c4cccnc4)nn23)cc1OC
- IC50 [2]: 35.9 µM (inactive)
- IC50 [3]: 35.9 µM (inactive)
- IC50 [4]: 35.9 µM (inactive)

Structure (SMILES): COc1ccc(C(=O)NC(=S)NNC(=O)[C@H]2C[C@@H]2c2ccccc2)cc1OC
- EC50 [5]: 3.19 µM (active)
- EC50 [6]: 1.36 µM (active)
- IC50 [7]: 65.8 µM (inactive)
- CC50 [8]: > 25 µM (active)

Structure (SMILES): O=Cc1c(O)nc2ccccc2c1NCc1ccc(Cl)cc1
- IC50 [9]: > 59.6 µM (inactive)
- IC50 [10]: > 59.6 µM (inactive)
- IC50 [11]: > 59.6 µM (inactive)

Structure (SMILES): N#C/C(=C\c1cc2ccccc2nc1N1CCCCC1)C(N)=O
- IC50 [12]: 53.2 µM (inactive)
- IC50 [13]: 25.8 µM (inactive)

Structure (SMILES): O=c1cc(-c2ccc(O)c(O)c2)oc2ccc3ccccc3c12
- IC50 [14]: > 94.2 µM (inactive)

Structure (SMILES): CCC1(OC(=O)CN)C(=O)OCc2c1cc1n(c2=O)Cc2cc3ccccc3nc2-1 (centres undefined)
- AC50 [15]: 2.25 µM (active)
- IC50 [16]: 1.23 µM (active)
- EC50 [17]: > 55.7 µM (not active)
- EC50 [18]: > 55.7 µM (not active)

Structure (SMILES): CC(C)[C@H](NC(=O)c1ccccc1)C(=O)OCc1nc2scc(-c3ccccc3)c2c(=O)[nH]1
- EC50 [19]: > 104 µM (inactive)
